# Laboratory results: article PMC4163838 (The Biochemical journal, 2014)
# Legend:
# [1] = biological target: T1, AKR1D1 (human steroid 5β-reductase) (Homo sapiens, UniProt P51857); test: stopped-flow binding, energy transfer fluorescence; conditions: biphasic binding to free enzyme; 37 °C, pH 6.0, 4 % acetonitrile
# T1 sequence (P51857 1-326): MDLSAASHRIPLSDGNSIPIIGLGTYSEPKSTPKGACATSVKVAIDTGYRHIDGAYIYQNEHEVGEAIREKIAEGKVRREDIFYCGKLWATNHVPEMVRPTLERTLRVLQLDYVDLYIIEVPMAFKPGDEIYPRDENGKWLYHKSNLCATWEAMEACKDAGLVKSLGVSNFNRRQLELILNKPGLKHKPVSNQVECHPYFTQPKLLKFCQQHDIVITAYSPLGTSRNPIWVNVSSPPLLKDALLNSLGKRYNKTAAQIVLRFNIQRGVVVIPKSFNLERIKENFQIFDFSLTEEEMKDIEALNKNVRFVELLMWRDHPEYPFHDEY
# [2] = biological target: T1, AKR1D1 (human steroid 5β-reductase); test: fluorescence titration; type: binding
# [3] = biological target: T1, AKR1D1 (human steroid 5β-reductase); test: stopped-flow competition with excess NADPH, energy transfer fluorescence; type: binding; conditions: dissociation rate constant from binary complex; 37 °C, pH 6.0, 4 % acetonitrile
Compound,Kd [2] [µM],other results
NC(=O)C1=CN([C@@H]2O[C@H](COP(=O)(O)OP(=O)(O)OC[C@H]3O[C@@H](n4cnc5c(N)ncnc54)[C@H](OP(=O)(O)O)[C@@H]3O)[C@@H](O)[C@H]2O)C=CC1 [NADPH],,"stopped-flow binding, energy transfer fluorescence [1]: AKR1D1 was mixed with NADPH and the process of NADPH binding to AKR1D1 was directly monitored"
"CC(C)CCC[C@@H](C)[C@H]1CC[C@H]2[C@@H]3[C@H](O)CC4=CC(=O)CC[C@]4(C)[C@H]3CC[C@]12C [7α-hydroxycholestenone, 7α-hydroxy-4-cholesten-3-one]",1.3 ± 0.1,
NC(=O)c1ccc[n+]([C@@H]2O[C@H](COP(=O)(O)OP(=O)(O)OC[C@H]3O[C@@H](n4cnc5c(N)ncnc54)[C@H](OP(=O)(O)O)[C@@H]3O)[C@@H](O)[C@H]2O)c1 [NADP^+],,koff [3]: 0.36 ± 0.01 s⁻¹
CC(C)(C)NC(=O)[C@H]1CC[C@H]2[C@@H]3CC[C@H]4NC(=O)C=C[C@]4(C)[C@H]3CC[C@]12C [finasteride],1.14 ± 0.09,
